Reference: article PMC8624133, “10th Trends in Medical Mycology Held on 8 to 11 October 2021, Aberdeen, Scotland, Organized by the European Confederation of Medical Mycology (ECMM)” (Journal of Fungi, 2021)
Values after ≈ are worked out from the molar mass of the structure shown.

What was measured:
[1] = tested on: sessile cells of yeast mono and dual-species biofilms; assay: MIC of catheter yeast isolates, mono and dual-species biofilms; assay type: cell-based; details: range
[2] = tested on: Candida sp. and other yeast isolates, planktonic; assay: MIC of catheter yeast isolates, planktonic form; assay type: cell-based; details: read-out: Minimum Inhibitory Concentrations (MIC)
C. auris [3] = assay: Postantifungal effect (PAFE); assay type: cell-based, Candida auris; details: 2 and 4 mg/L, 1 h exposure, six blood isolates
Procedure: Materials & Methods: PAFE experiments were performed in microtitre plates, with six C. auris clinical blood isolates (Hospital La Fe, Valencia, Spain). […] Cell pellets were re-suspended in RPMI medium and added back to the microtitre plates. Sample for viable counts were taken at 0, 2, 4, 6, 8, 24 and 48 h after re-suspension, plated in triplicate onto Sabouraud dextrose agar and incubated for 24–48 h at 37 °C. Experiments were performed in duplicate for each isolate on different days. PAFE was calculated as follows: PAFE = T − C. Where “T” is the time needed by the treated fungal cultures to growth 1 log after drug removal and “C” is the time needed by the control group to growth 1 log after last washout. Additionally, maximum log reductions of time-kill and PAFE experiments were compared and used to calculate a PAFE/time-kill index to determine the percentage of cell killing that could be attributed to the PAFE.

C. auris [4] = assay: ARIA surveillance, CLSI M27 broth microdilution; assay type: cell-based, Candida auris; details: CDC tentative breakpoints
C. parapsilosis = assay: ARIA surveillance, CLSI M27 broth microdilution; assay type: cell-based, Candida parapsilosis
C. albicans = assay: […] candidemia survey, susceptibility according to CLSI; assay type: cell-based, Candida albicans
C. tropicalis = assay type: cell-based, Candida tropicalis; details: all successive strains
[5] = Universal voriconazole prophylaxis in lung transplant recipients, retrospective; assay type: in vivo, human
Procedure: Materials & Methods: Retrospective study of all adult lung transplant recipients at Copenhagen University Hospital during 2010 to 2019. […] Failure to complete prophylaxis was defined as recieving <9 of the intented 12 weeks of prophylaxis. Liver and kidney toxicity was graded according to Common Terminology Criteria for Adverse Events (CTCAE) criteria (grades 0–4 according to degree of elevation). Grade ≥2 adverse events were classified as high. Lung biopsies were evaluated for acute rejection (grade ≥A2). Calcineurin-inhibitor (CNI) plasma-concentrations were evaluated for off-target episodes. High and low episodes were defined as ≥2 concecutive samples 20% above or below target range limits, respectively. […] Acute rejections were classified as related to low CNI if they occurred 0–30 days from low CNI. Grade ≥2 kidney toxicity was considered related to high CNI if it occurred between two days prior to high CNI to 7 days after.

[6] = Voriconazole exposure during ECMO, retrospective; assay type: in vivo, human
F. solani (FS) biofilms = assay: Mature biofilm damage, XTT metabolic reduction assay; details: Fusarium solani, 24 h, read-out: BF MIC50
Scedosporium apiospermum = assay: EUCAST reference method MIC; assay type: cell-based
Procedure: Case presentation: A patient presented with a bursitis of their left elbow. Six months before they were treated with lymphodepleting chemotherapy directly followed by B-cell associated CD19-specific chimeric antigen receptor (CAR) T cell therapy for recurrence of follicular lymphoma. They were considered immunocompromised, with total neutrophils and lymphocytes slightly below normal levels, absent B-cells, and a treatment associated persistent hypogammaglobulinaemia. Four weeks before presentation at our hospital they contacted their GP because of swelling and pain of their left elbow. Their GP aspirated fluid from their elbow, injected steroids and started antibiotics, but now there was recurrence of swelling and pain. Bursitis without arthritis was diagnosed by a rheumatologist and the bursa was surgically opened and drained, relieving pus. The patient was started on oral flucloxacillin and sent home. Two days later the culture of the pus from the bursa grew white colonies on a Sabouraud dextrose agar plate, showing long conidophores with large oval conidia on microscopy. […] Over the next few weeks the bursitis symptoms diminished. […] Voriconazole is considered first line treatment for Scedosporium infections. […] Eight weeks later there were no signs of bursitis and posaconazole was discontinued.

Asp. flavus = assay: Triazole resistance agar screening, four-well plate; details: RPMI agar, 1 µg/mL, 29 isolates
Procedure: All the isolates were identified phenotypically. […] Fungal spores were suspended in normal saline (0.85%) and adjusted to 0.5 McFarland and 50 μL was plated in each well. […] Plates were incubated at 35–37 °C for 72 h in ambient air. The presence or absence of growth was observed visually at 24 h, 48 h, and 72 h.

Compound `C[C@@H]1[C@H](O)[C@@H](C)/C=C/C=C/C=C/C=C/C=C/C=C/C=C/[C@H](O[C@@H]2O[C@H](C)[C@@H](O)[C@H](N)[C@@H]2O)C[C@@H]2O[C@](O)(C[C@@H](O)C[C@@H](O)[C@H](O)CC[C@@H](O)C[C@@H](O)CC(=O)O[C@H]1C)C[C@H](O)[C@H]2C(=O)O` [amphotericin B] has an MIC [1] of 0.25 to 8 µg/mL, an MIC [2] of 30 to 1000 µg/mL and a PAFE (C. auris [3]) of 3.5 to 6.5 h.
Compound `OC(Cn1cncn1)(Cn1cncn1)c1ccc(F)cc1F` [fluconazole] has a susceptible (C. auris [4]) of 56.3%, a susceptibility (C. parapsilosis; Italy) of 52.4% and a susceptibility (C. parapsilosis; Turkey) of 76.2%. For the same compound, the overall susceptibility (C. parapsilosis; all countries) was 88.5%, the susceptibility (C. parapsilosis; all countries except Italy and Turkey) was 100% and the non-susceptibility (C. albicans) was 1%. For the same compound, the susceptibility category (C. tropicalis) was “susceptible”.
With `C[C@@H](c1ncncc1F)[C@](O)(Cn1cncn1)c1ccc(F)cc1F` [voriconazole] the “low CNI plasma-concentration episode related to discontinuation of voriconazole” value ([5]; patients of the universal prophylaxis period) was 45%, the “failed to complete prophylaxis” value ([5]; receiving <9 of the intended 12 weeks, 183 patients on voriconazole prophylaxis) was 62% and the “failure to complete prophylaxis due to hepatic toxicity” value ([5]; share of the 114 patients who failed to complete) was 72%. The “samples with subtherapeutic concentration (<2 mg/L)” value ([6]; during ECMO) was 56%, the “median trough concentration [IQR]” value ([6]; under ECMO) was 2.4 [1.2–4.7] mg/L and the “median trough concentration [IQR]” value ([6]; without ECMO) was 2.5 [1.4–3.9] mg/L. For the same compound, the “samples with subtherapeutic concentration (<2 mg/L)” value ([6]; without ECMO) was 39%, the MIC50 (F. solani (FS) biofilms) was > 256 µg/mL and the MIC (Scedosporium apiospermum; first isolate from bursa pus) was 0.5 µg/mL (≈ 1.43 µM). The MIC (Scedosporium apiospermum; isolate two months later, under posaconazole) was 1 µg/mL (≈ 2.86 µM), the “isolates with growth only in voriconazole well, n (%)” value (Asp. flavus; 48 h) was 1 (3.44%) and the “isolates with growth only in voriconazole well, n (%)” value (Asp. flavus; 72 h) was 11 (37.93%).
